Source: publication PMC11509018, “Evaluation of the Role of Tanshinone I in an In Vitro System of Charcot-Marie-Tooth Disease Type 2N” (International Journal of Molecular Sciences, 2024)
“Also recorded” adds a separate entry of the source.

Key:
AlaRS^R329H [1] = target: T1, AlaRS^R329H (Homo sapiens, UniProt P49588, R329H); test: Proteolytic digestion assay (trypsin, SDS-PAGE); settings: 3 h
T1 construct: made in house; host or cells: E. coli BL21 (DE3), pET-21a
T1 sequence (P49588 1-968 R329H): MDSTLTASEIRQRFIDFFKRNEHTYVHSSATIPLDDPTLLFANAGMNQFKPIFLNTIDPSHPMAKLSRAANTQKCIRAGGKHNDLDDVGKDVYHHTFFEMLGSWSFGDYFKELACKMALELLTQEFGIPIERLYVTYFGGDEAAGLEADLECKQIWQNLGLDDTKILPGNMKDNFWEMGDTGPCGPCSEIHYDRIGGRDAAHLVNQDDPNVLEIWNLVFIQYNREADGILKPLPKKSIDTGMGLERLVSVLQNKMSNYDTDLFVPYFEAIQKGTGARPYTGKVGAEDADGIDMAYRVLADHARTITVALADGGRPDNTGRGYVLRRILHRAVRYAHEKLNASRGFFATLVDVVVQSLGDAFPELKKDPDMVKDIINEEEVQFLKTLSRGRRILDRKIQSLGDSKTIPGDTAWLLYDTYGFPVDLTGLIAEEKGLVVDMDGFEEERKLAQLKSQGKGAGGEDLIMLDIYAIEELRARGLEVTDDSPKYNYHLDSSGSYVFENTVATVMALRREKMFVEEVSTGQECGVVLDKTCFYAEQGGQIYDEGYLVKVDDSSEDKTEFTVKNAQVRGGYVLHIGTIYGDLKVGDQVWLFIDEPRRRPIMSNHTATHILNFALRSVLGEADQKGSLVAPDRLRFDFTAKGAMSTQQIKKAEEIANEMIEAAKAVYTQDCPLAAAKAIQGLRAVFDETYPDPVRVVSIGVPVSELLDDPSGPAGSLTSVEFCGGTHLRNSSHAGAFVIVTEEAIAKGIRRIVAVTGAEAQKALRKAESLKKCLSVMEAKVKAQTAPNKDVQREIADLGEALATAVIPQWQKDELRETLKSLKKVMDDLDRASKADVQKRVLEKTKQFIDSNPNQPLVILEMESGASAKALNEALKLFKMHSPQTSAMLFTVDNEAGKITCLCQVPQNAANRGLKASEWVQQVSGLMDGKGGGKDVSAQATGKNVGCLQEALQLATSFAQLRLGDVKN
Procedure: To delve deeper into the impact of selected small molecules on the structural conformation of AlaRS^R329H proteins, a series of proteolysis experiments were conducted. The small molecules were incubated with AlaRS^R329H proteins at room temperature for three hours, followed by SDS-PAGE analysis to evaluate their effects on the distribution of the digestion fragments. […] The AlaRS^R329H proteins (in the presence and absence of Atazanavir sulfate, Tanshinone I, Hederacolchiside A1, and Hexylresorcinol) were incubated with trypsin at different concentrations for 3 h before the reactions were quenched, and the products were separated by SDS-PAGE.

NSC34 cells = test: Cell viability (CCK-8 assay); format: cell-based; settings: up to 40 μM, 24 h
Procedure: (§1) Further validation of the safety and efficacy of Tanshinone I involved conducting cytotoxicity assays to ensure minimal toxicity to normal cells, while effectively inhibiting the abnormal interaction between AlaRS CMT mutants and Nrp1. We used the CCK-8 assay to evaluate the effects of Tanshinone I on 293T and NSC34 cells. Cells were treated with different concentrations of Tanshinone I for 24 h, followed by incubation with CCK-8 reagent. […] The Cell Counting Kit-8 (CCK-8) assay was performed to assess cell viability following the manufacturer’s instructions. Briefly, cells were seeded at an initial density of 5 × 10^3 cells per well in a 96-well plate and incubated overnight. The following day, the cells were treated with various concentrations of Tanshinone I. After 24 h of treatment, 10 μL of CCK-8 reagent (GlpBio, Montclair, CA, USA) was added to each well, and the plate was incubated at 37 °C with 5% CO2 for 1.5 h. Absorbance was then measured at 450 nm using a multimode microplate reader. The experiment was repeated three times.

293T cells = test: Cell viability (CCK-8 assay); format: cell-based; settings: up to 40 μM, 24 h
Procedure: as §1

AlaRS^R329H [2] = target: T1, AlaRS^R329H; test: Thermal shift assay (TSA); format: binding; settings: positive hit = shift of more than 2.5 °C
Source text: In this assay, with increasing temperatures, the protein undergoes thermal unfolding, exposing its hydrophobic core. Subsequently, a fluorescent dye binds to these hydrophobic regions, becoming unquenched. Fluorescence is closely monitored, and the midpoint of the protein unfolding transition is designated as the Tm. Ligand binding frequently influences protein thermal stability during denaturation. Thus, the ligand binding affinity of any potential inhibitor can be gauged by evaluating the shift in the Tm. In this experiment, we screened a library of 2000 small molecules (Table S1) and classified as positive hits those that caused a shift in the Tm of the mutant protein of more than 2.5 °C. From the TSA, we identified four small molecules that met this criterion (Figure 2A, Table 1). Specifically, Atazanavir sulfate caused a shift of 4.0 °C, Tanshinone I a shift of 3.1 °C, Hederacolchiside A1 a shift of 4.3 °C, and Hexylresorcinol a shift of 5.5 °C (Figure 2B). To assess the impact of small molecules on the thermal stability of mutant proteins, thermal shift assays were performed using a […] (Applied Biosystems, Waltham, MA, USA) with the Protein Thermal Shift™ Kit dye (Thermo Fisher Scientific, Waltham, MA, USA). Each well of a 96-well Optical Reaction Plate (Applied Biosystems) contained 14 μL of thermal shift buffer, 2 μL of diluted thermal shift dye (8×), 2 μL of a 1 mM small molecule solution, and 2 μL of 1 mg/mL protein. Plates were incubated at 4 °C for 1 h before being heated from 25 °C to 95 °C at 1 °C/min. The fluorescence signal of SYPRO orange (excitation/emission: 490/530 nm) was recorded at 30 s intervals to monitor protein denaturation. The melting temperature (Tm), defined as the midpoint of the unfolding transition, was determined from the fluorescence–temperature curve. ΔTm was calculated as the difference in Tm between AlaRS^R329H treated with compounds and the control. Experiments were conducted in triplicate for accuracy. The experiment was repeated three times.

ΔTm (shift between the Tm values of AlaRS^R329H with and without compounds) (AlaRS^R329H [2]): 3.1 °C
Compound: Cc1coc2c1C(=O)C(=O)c1c-2ccc2c(C)cccc12 [Tanshinone I]
Effect on distribution of digestion fragments / conformation (AlaRS^R329H [1]): markedly altered the digestion fragment pattern; also recorded: significant change in the distribution of the bands | Cell viability (NSC34 cells): did not significantly affect the viability | Cell viability (293T cells): did not significantly affect the viability
